In ChEMBL document CHEMBL4811298, “Discovery of novel class of histone deacetylase inhibitors as potential anticancer agents” (Bioorg Med Chem, 2021):
Activity calls are given as the source filed them. The rule behind the calls is not given here.

Legend:
[1] = target: Histone deacetylase 1 (Homo sapiens, UniProt Q13547); assay: (§1) Inhibition of C-terminal FLAG/His-tagged human recombinant HDAC1 (1 to 482 residues) expressed in baculovirus-infected Sf9 cells assessed as reduction in 7-amino-4-methylcoumarin release using fluorogenic HDAC substrate 3 measured every 5 mins by fluorescence based analysis
[2] = target: Histone deacetylase 2 (Homo sapiens, UniProt Q92769); format: cell-based, Sf9
[3] = target: Histone deacetylase 3/Nuclear receptor corepressor 2 (HDAC3/NCoR2) (Homo sapiens, UniProt O15379); assay: as §1, with “His-tagged” for “FLAG/His-tagged”, “full length HDAC3” for “HDAC1”, “428 residues)/N-terminal GST-tagged human recombinant NCOR2 (395 to 489” for “482”
Chain of Histone deacetylase 3/Nuclear receptor corepressor 2 (HDAC3/NCoR2) (O15379 whole entry, the tested form may be a part): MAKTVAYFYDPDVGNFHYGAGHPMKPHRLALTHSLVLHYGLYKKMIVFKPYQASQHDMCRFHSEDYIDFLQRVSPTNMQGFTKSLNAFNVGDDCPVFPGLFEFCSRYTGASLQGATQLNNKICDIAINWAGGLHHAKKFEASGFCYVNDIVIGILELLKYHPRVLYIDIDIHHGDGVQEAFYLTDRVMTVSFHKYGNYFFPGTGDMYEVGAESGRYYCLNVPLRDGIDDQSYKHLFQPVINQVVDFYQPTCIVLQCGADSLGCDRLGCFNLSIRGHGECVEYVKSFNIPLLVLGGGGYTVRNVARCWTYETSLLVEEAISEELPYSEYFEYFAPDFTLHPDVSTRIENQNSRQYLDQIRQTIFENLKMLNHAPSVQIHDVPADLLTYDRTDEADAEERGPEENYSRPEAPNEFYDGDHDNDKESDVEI
Chain of Histone deacetylase 3/Nuclear receptor corepressor 2 (HDAC3/NCoR2) (Q9Y618 whole entry, further chain, the tested form may be a part): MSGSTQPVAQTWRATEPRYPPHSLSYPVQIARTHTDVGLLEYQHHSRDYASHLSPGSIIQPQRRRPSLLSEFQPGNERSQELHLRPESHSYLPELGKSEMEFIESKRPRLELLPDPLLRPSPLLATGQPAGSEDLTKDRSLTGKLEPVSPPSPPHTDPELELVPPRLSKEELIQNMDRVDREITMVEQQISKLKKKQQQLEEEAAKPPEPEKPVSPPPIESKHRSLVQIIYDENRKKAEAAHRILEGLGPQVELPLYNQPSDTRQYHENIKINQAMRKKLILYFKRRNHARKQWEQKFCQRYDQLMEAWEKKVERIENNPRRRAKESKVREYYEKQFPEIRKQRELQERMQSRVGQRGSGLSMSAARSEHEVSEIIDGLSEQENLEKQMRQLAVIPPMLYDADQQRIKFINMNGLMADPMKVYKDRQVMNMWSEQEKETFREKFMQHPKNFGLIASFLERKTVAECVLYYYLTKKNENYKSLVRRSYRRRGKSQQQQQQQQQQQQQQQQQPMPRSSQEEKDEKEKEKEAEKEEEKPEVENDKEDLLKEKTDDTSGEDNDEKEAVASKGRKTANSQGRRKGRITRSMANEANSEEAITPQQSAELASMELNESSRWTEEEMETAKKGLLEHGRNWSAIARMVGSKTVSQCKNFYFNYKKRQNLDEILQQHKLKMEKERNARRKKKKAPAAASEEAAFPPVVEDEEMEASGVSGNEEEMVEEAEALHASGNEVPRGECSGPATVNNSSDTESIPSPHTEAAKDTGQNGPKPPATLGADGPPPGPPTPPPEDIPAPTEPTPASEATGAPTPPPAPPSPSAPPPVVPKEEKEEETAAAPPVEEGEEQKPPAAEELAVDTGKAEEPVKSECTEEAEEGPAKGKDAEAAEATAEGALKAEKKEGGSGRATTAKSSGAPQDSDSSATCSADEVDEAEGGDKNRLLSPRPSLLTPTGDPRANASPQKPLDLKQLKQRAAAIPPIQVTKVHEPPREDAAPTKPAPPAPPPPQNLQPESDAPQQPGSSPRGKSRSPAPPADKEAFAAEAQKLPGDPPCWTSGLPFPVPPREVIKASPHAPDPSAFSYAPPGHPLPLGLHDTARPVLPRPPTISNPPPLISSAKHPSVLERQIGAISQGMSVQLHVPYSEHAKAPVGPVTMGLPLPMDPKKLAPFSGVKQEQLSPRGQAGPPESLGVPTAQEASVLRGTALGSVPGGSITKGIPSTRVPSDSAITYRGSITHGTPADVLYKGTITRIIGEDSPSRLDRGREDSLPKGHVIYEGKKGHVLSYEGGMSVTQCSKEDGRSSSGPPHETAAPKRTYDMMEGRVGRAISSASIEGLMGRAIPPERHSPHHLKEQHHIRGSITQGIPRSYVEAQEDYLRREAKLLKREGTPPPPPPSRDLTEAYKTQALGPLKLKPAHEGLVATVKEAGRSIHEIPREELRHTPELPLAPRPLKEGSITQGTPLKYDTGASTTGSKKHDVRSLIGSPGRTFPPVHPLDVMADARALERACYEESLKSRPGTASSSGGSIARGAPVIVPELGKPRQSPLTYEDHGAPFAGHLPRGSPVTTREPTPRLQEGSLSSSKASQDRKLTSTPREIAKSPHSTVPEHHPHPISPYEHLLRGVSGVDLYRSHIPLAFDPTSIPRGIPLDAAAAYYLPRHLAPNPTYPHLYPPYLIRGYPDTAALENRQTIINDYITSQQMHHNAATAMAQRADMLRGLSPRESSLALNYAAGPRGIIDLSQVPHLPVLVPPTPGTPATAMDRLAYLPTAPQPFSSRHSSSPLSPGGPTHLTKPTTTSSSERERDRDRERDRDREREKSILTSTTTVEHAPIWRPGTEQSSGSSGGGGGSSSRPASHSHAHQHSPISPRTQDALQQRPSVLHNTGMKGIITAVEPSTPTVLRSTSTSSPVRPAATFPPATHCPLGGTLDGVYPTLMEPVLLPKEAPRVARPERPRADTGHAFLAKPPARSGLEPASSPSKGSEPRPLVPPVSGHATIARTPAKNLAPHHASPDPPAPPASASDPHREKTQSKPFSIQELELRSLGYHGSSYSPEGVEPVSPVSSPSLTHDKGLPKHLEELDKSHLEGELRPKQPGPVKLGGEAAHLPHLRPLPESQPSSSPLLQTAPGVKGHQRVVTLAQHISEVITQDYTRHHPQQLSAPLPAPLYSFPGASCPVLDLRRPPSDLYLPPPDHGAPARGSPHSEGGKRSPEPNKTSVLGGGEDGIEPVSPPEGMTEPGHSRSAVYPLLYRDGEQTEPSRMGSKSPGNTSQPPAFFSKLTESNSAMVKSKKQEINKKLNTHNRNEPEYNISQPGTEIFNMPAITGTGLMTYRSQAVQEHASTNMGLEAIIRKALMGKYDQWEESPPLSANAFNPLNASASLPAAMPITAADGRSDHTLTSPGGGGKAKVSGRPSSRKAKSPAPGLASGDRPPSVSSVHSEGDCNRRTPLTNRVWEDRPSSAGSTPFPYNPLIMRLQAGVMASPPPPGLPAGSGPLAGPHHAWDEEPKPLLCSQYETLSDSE

[4] = target: Histone deacetylase 4 (Homo sapiens, UniProt P56524); assay: Inhibition of N-terminal GST-tagged/C-terminal His-tagged human recombinant HDAC4 (627 to 1084 residues) expressed in baculovirus-infected Sf9 cells assessed as reduction in 7-amino-4-methylcoumarin release measured every 5 mins by fluorescence based analysis
[5] = target: T1, Histone deacetylase 5 (Homo sapiens, UniProt Q9UQL6); assay: Inhibition of N-terminal GST-tagged human recombinant full length HDAC5 expressed in baculovirus-infected Sf9 cells assessed as reduction in 7-amino-4-methylcoumarin release measured every 5 mins by fluorescence based analysis
T1 sequence (Q9UQL6 whole entry): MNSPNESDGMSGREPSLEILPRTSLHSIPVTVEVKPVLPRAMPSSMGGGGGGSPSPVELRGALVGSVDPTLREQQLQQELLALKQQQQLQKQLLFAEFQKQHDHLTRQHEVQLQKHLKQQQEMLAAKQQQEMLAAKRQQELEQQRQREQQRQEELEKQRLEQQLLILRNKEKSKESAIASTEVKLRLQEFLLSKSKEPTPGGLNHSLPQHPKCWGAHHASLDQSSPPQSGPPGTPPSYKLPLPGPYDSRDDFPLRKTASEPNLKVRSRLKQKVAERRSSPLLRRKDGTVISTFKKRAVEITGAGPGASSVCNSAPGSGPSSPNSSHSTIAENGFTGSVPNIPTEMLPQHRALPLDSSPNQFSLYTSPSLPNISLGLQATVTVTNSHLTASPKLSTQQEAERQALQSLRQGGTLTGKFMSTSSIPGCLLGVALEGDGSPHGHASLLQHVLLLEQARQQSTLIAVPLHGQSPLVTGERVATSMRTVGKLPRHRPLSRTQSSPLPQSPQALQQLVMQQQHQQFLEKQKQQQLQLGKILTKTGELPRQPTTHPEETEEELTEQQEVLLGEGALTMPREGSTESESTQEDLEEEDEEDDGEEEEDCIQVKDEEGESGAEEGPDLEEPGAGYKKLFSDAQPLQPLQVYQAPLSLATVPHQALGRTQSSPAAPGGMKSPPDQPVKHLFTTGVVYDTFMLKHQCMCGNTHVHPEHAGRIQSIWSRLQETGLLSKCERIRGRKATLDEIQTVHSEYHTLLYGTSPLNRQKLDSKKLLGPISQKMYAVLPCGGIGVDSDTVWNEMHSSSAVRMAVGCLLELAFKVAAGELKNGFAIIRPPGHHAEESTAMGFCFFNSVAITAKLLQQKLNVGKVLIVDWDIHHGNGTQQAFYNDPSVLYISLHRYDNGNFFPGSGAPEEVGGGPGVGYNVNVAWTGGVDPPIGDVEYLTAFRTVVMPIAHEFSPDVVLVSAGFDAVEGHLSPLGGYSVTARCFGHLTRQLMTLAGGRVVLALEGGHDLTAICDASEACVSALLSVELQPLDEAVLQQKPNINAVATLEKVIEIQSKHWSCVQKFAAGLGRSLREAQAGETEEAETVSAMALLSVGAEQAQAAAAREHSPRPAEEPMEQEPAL

[6] = target: T2, Histone deacetylase 7 (Homo sapiens, UniProt Q8WUI4); assay: Inhibition of N-terminal GST-tagged human HDAC7 (518 to end residues) expressed in baculovirus-infected Sf9 cells assessed as reduction in 7-amino-4-methylcoumarin release measured every 5 mins by fluorescence based analysis
T2 sequence (Q8WUI4 whole entry): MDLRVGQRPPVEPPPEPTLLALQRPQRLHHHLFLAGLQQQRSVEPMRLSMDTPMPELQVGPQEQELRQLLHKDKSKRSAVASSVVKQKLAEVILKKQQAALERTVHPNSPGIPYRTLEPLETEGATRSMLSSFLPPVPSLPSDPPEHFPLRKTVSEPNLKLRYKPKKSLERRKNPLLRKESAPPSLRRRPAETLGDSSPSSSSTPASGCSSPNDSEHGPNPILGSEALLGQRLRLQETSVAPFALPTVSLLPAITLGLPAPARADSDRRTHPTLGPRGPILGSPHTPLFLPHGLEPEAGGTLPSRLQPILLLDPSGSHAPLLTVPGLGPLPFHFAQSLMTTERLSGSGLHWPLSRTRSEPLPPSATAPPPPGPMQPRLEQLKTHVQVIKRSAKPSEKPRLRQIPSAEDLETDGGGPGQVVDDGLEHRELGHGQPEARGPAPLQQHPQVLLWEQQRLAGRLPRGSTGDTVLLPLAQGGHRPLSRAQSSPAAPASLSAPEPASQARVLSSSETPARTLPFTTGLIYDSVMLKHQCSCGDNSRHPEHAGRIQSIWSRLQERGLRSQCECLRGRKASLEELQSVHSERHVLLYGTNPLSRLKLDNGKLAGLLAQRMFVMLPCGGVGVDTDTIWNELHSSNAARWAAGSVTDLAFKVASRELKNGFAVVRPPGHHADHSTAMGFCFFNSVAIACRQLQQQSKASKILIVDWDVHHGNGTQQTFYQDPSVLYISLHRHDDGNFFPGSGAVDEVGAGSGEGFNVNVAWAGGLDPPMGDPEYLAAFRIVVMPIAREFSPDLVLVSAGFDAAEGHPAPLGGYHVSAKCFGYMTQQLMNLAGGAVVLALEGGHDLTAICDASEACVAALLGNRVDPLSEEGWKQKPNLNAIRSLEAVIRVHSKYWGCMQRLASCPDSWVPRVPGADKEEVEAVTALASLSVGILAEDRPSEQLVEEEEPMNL

[7] = target: Histone deacetylase 9 (Homo sapiens, UniProt Q9UKV0); assay: Inhibition of C-terminal His-tagged human HDAC9 (604 to 1066 residues) expressed in baculovirus-infected Sf9 cells assessed as reduction in 7-amino-4-methylcoumarin release measured every 5 mins by fluorescence based analysis
Chain of Histone deacetylase 9 (Q9UKV0 whole entry, the tested form may be a part): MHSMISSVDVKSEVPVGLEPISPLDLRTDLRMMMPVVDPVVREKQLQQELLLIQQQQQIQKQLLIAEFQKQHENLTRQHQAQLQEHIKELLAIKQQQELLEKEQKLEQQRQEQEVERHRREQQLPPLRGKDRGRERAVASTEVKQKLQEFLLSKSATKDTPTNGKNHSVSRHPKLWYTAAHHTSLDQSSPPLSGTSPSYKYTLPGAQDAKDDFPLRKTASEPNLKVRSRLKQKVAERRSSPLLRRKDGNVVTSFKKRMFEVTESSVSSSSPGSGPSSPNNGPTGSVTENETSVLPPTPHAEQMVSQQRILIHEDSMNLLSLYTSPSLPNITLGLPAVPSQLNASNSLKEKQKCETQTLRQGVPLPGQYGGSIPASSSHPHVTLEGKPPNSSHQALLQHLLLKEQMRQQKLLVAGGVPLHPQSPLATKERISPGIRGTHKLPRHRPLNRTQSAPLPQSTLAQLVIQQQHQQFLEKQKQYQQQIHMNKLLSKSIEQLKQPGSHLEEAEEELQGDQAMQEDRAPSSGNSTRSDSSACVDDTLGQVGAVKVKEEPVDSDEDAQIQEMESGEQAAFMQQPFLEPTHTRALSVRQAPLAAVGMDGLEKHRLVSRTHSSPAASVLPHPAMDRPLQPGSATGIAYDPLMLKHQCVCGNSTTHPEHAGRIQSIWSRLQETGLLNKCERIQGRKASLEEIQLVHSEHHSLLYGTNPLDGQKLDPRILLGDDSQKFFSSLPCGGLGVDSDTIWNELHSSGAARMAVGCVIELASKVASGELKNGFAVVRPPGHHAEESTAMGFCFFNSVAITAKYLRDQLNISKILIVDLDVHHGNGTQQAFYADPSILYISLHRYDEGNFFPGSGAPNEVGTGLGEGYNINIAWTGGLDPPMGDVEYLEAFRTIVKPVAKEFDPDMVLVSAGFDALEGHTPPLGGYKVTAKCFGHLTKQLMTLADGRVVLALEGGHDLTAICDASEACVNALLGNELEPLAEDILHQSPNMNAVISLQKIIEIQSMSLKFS

[8] = test system: MCF7; assay: Induction of apoptosis in human MCF7 cells assessed as downregulation of c-Myc protein expression at 1 to 3 uM measured after 48 hrs western blot analysis; format: functional, cell-based; conditions: dose 1-3 µM
[9] = test system: MCF7; assay: Induction of apoptosis in human MCF7 cells assessed as increase in caspase 3/7 activity at 1 to 3 uM measured after 48 hrs by ELISA; format: functional, cell-based; conditions: dose 1-3 µM
[10] = test system: MCF7; assay: Upregulation of NFkB2 gene expression in human MCF7 cells at 3 uM incubated for 24 hrs by whole transcriptome analysis; format: functional, cell-based
[11] = test system: MCF7; assay: Induction of cell cycle arrest in human MCF7 cells assessed as accumulation at G1/S phase at 1 uM incubated for 4 hrs by PI staining based flow cytometric analysis; format: functional
[12] = test system: MCF7; assay: Induction of cell cycle arrest in human MCF7 cells assessed as accumulation at G2/M phase at 1 uM incubated for 24 hrs by PI staining based flow cytometric analysis; format: functional
[13] = test system: MCF7; assay: Induction of cell cycle arrest in human MCF7 cells assessed as accumulation at subG1 phase at 1 uM incubated for 24 to 72 hrs by PI staining based flow cytometric analysis; format: functional; conditions: time 24-72 hrs
[14] = test system: MCF7; assay: Upregulation of HDAC1 gene expression in human MCF7 cells at 3 uM incubated for 24 hrs by whole transcriptome analysis; format: functional, cell-based
[15] = test system: MCF7; assay: Upregulation of HDAC2 gene expression in human MCF7 cells at 3 uM incubated for 24 hrs by whole transcriptome analysis; format: functional, cell-based
[16] = test system: MCF7; assay: Upregulation of HDAC3 gene expression in human MCF7 cells at 3 uM incubated for 24 hrs by whole transcriptome analysis; format: functional, cell-based
[17] = test system: MCF7; assay: Upregulation of HDAC8 gene expression in human MCF7 cells at 3 uM incubated for 24 hrs by whole transcriptome analysis; format: functional, cell-based
[18] = test system: MCF7; assay: Upregulation of HDAC4 gene expression in human MCF7 cells at 3 uM incubated for 24 hrs by whole transcriptome analysis; format: functional, cell-based
[19] = test system: MCF7; assay: Upregulation of HDAC5 gene expression in human MCF7 cells at 3 uM incubated for 24 hrs by whole transcriptome analysis; format: functional, cell-based
[20] = test system: MCF7; assay: Upregulation of HDAC7 gene expression in human MCF7 cells at 3 uM incubated for 24 hrs by whole transcriptome analysis; format: functional, cell-based
[21] = test system: MCF7; assay: Upregulation of HDAC6 gene expression in human MCF7 cells at 3 uM incubated for 24 hrs by whole transcriptome analysis; format: functional, cell-based
[22] = test system: MCF7; assay: Upregulation of HDAC10 gene expression in human MCF7 cells at 3 uM incubated for 24 hrs by whole transcriptome analysis; format: functional, cell-based
[23] = test system: MCF7; assay: Upregulation of HDAC11 gene expression in human MCF7 cells at 3 uM incubated for 24 hrs by whole transcriptome analysis; format: functional, cell-based
[24] = test system: MCF7; assay: Upregulation of SIRT1 gene expression in human MCF7 cells at 3 uM incubated for 24 hrs by whole transcriptome analysis; format: functional, cell-based
[25] = test system: MCF7; assay: Upregulation of SIRT2 gene expression in human MCF7 cells at 3 uM incubated for 24 hrs by whole transcriptome analysis; format: functional, cell-based
[26] = test system: MCF7; assay: Upregulation of SIRT3 gene expression in human MCF7 cells at 3 uM incubated for 24 hrs by whole transcriptome analysis; format: functional, cell-based
[27] = test system: MCF7; assay: Upregulation of SIRT4 gene expression in human MCF7 cells at 3 uM incubated for 24 hrs by whole transcriptome analysis; format: functional, cell-based
[28] = test system: MCF7; assay: Upregulation of SIRT5 gene expression in human MCF7 cells at 3 uM incubated for 24 hrs by whole transcriptome analysis; format: functional, cell-based
[29] = test system: MCF7; assay: Upregulation of SIRT6 gene expression in human MCF7 cells at 3 uM incubated for 24 hrs by whole transcriptome analysis; format: functional, cell-based
[30] = test system: MCF7; assay: Upregulation of SIRT7 gene expression in human MCF7 cells at 3 uM incubated for 24 hrs by whole transcriptome analysis; format: functional, cell-based
[31] = test system: MCF7; assay: Upregulation of NFkB1 gene expression in human MCF7 cells at 3 uM incubated for 24 hrs by whole transcriptome analysis; format: functional, cell-based
[32] = test system: MCF7; assay: Upregulation of RELA (p65 ) gene expression in human MCF7 cells at 3 uM incubated for 24 hrs by whole transcriptome analysis; format: functional, cell-based
[33] = test system: MCF7; assay: Upregulation of RELB gene expression in human MCF7 cells at 3 uM incubated for 24 hrs by whole transcriptome analysis; format: functional, cell-based
[34] = test system: MCF7; assay: Upregulation of c-REL gene expression in human MCF7 cells at 3 uM incubated for 24 hrs by whole transcriptome analysis; format: functional, cell-based
[35] = target: T1, Histone deacetylase 5; assay: Potency index, ratio of vorinostat IC50 to test compound IC50 for Inhibition of N-terminal GST-tagged human recombinant full length HDAC5 expressed in baculovirus-infected Sf9 cells assessed as reduction in 7-amino-4-methylcoumarin release measured every 5 mins by fluorescence based analysis

IC50 [1]: > 10 µM
IC50 [2]: > 10 µM
IC50 [3]: > 10 µM
IC50 [4]: 8 µM
IC50 [5]: 0.307 µM
IC50 [6]: > 10 µM
IC50 [7]: > 10 µM
Ratio IC50 [35]: > 33
SMILES: CC(C)(C)Nc1c(-c2cccc(-c3nc4cc(-c5noc(C(F)(F)F)n5)ccc4[nH]3)c2)nc2cnccn12
Activity [8]: Active
Activity [9]: Active
Activity [10]: Active
Activity [11]: Active
Activity [12]: Active
Activity [13]: Active
Activity [14]: Active
Activity [15]: Active
Activity [16]: Active
Activity [17]: Active
Activity [18]: Active
Activity [19]: Active
Activity [20]: Active
Activity [21]: Active
Activity [22]: Active
Activity [23]: Active
Activity [24]: Active
Activity [25]: Active
Activity [26]: Active
Activity [27]: Active
Activity [28]: Active
Activity [29]: Active
Activity [30]: Active
Activity [31]: Active
Activity [32]: Active
Activity [33]: Active
Activity [34]: Active
